The subject of this assay is cells. Kind of assay: Cell attachment assay, peptides/proteins from amyloid P component coated on plates (Table I). The format is cell-based. The following applies: plates coated with peptide/protein (20 uM); average ± SEM. The method, then: All cell types used were obtained from American Type Culture Collection, Rockville, Md. and were maintained in Dulbecco's modified Eagle's medium (DMEM) supplemented with 10% fetal calf serum (FCS). The cells were grown to approximately 80% confluency in Falcon T75 flasks. For cell attachment assays, cells were washed with PBS (pH 7.4), and then detached from the tissue culture flasks with 0.025% trypsin, 0.025% EDTA.
The cells were sedimented by low speed centrifugation, suspended in serum-free Eagle's minimal essential medium (EMEM) containing 0.05% BSA and used immediately in the cell attachment assays.
Cell attachment was assayed as described by Graf et al., Biochemistry 26, 6896-6900 (1987). 24 well plastic culture plates (Linbro, Flow Laboratories, Inc., Va.) were coated with the desired peptides at 25° C. for 16 h in 0.1M bicarbonate buffer, pH 9.6. Exposed non-specific cell attachment sites were blocked by coating the wells with 3% BSA for 1 h at 25° C. Cells, (1.1×10^5), prepared as described above, were added to each well and incubated at 37° C. for 1 h in a humidified incubator with 5% CO2 --95% air mixture. At the end of incubation, plates were gently washed twice with PBS to remove unattached cells. Attached cells were treated with trypsin and electronically counted. […] Each peptide was tested for cell attachment in six separate experiments.
Tissue culture plates (obtained from Linbro, Flow Laboratories, Inc., Va.) were coated with peptides or proteins at […]. Before coating (a) AP was denatured with 6M Guanidine HCl (GnHCl) for 2 h at 4° C. GnHCl was removed by extensive dialysis against 0.1M bicarbonate buffer, pH 9.6 at 4° C.; (b) AP was heat-denatured at 100° C. for 15 min.; (c) native AP was reduced and the free sulfhydryl groups were blocked by carboxymethylation, and (d) heat-denatured AP was treated as in (c). The values are expressed as the average ± SEM, and are reported hereinbelow in Table I.

Regarding “Reduced (native)/carboxy-methylated (c): native AP reduced and the free sulfhydryl groups blocked by carboxymethylation”, the No. attached cells turned out to be 2558 ± 428.

Substance “Heat-Denatured SAP (b): AP heat-denatured at 100° C. for 15 min.” came in with a No. attached cells of 3926 ± 552.

Substance “Reduced (heat-denatured SAP)/carboxymethylated (d): heat-denatured AP reduced and carboxymethylated as in (c)” gave a No. attached cells of 3436 ± 396.

For the substance “GnHCl-Denatured SAP (a): AP denatured with 6M Guanidine HCl for 2 h at 4° C., GnHCl removed by dialysis”, the No. attached cells was 3835 ± 424.

For the substance “Native SAP: Amyloid P component isolated from normal human serum, 125 kDa glycoprotein”, the No. attached cells stood at 3125 ± 348.

The values above are taken from US5092876A, “Cell attachment peptides derived from amyloid P component” (The United States of America as represented by the …, priority 1989, dated 1992).
